Experiments:
cisplatin-induced emesis = assay: Cisplatin-induced emesis in dogs (antiemetic); format: in vivo, dog; conditions: for inhibition in vivo at 1 mg/kg: Canis lupus familiaris, iv, 5 h, read-out: % inhibition of cisplatin-induced emesis
Procedure: The procedure used to test compounds of the present invention for antiemetic properties is a modification of the method of Gylys et al, Res. Commun, Chem. Pathol. Pharm., 23, 61(1979).
Adult, mongrel, unfasted dogs of both sexes were randomly assigned into treatment groups, with each treatment group consisting of four dogs. On the dosing day all dogs were given cisplatin, 3.0 mg/kg, intravenously. Sixty minutes later, the dogs in the control treatment group were given deionized water, 0.1 ml/kg intravenously. The dogs in the test group were given a test compound at an appropriate dose intravenously. All doses were administered as a solution by means of a syringe and needle, and each dog's emetic episodes were recorded for 5 hours after the administration of cisplatin.

[1] = test system: 5-HT (serotonin)-induced contractions of the guinea pig ileum; assay: Blockade of serotonin-induced contractions of guinea pig ileum (5-HT antagonist activity); format: cell-based; conditions: 10^-6 M serotonin
[2] = test system: exploratory light/dark behavior; assay: Anxiolytic model, two-compartment exploratory light/dark test in mice; format: in vivo; conditions: mouse, 10 mg/kg IP, 5 minute period; vehicle control 29
Source text: The method has been described by Young and Johnson, Soc. Neurosci. Abs., 1988, 14, 207 and is a modification of the procedures described by Costall and Naylor, Brit. J. Pharmacol. 1988, 93, 985-993; and Crawley, Pharmacol. Biochem. and Behav. 1981, 15, 695-699. A two compartment light-dark activity monitoring device (Digiscan Model RXWZCM16, Omnitech Electronics,Inc., Columbus, Ohio) is used. A 90W light source located 30 cm above the box provides light to the apparatus. Behavioral testing was conducted in a sound attenuated, darkened room illuminated with a red light (25W red bulb) only.
Each animal (mouse) received a dose of either the test, reference, or control article. The mouse was placed at the center of the illuminated area and its behavioral activity tallied over a 5 minute period by use of a Digiscan analyzer. Behavioral variables recorded include: the time spent in the lit and dark areas, the number of rearings in the lit and dark areas, the number of locomotor activity counts in the lit and dark areas, the number of transitions between the lit and dark or dark and lit areas, rearing time in the lit and dark areas, the latency to make the first transition from the lit to the dark areas, locomotor time in the lit and dark areas, and resting time in the lit and dark areas. Appropriate statistical analyses for each measure were performed. […]

emesis = conditions: reported by Mikhlina et al, Khim-Farmastsevt. Zh. 10 (1976); cited from earlier work
dopamine D2 -receptor = conditions: reported in USSR Pat. No. SU-414-261; cited from earlier work
gastric emptying = assay: Gastric emptying of a test meal in fasted rats; format: in vivo; conditions: fasted rat, 9.0 mg/kg IP 30 min before test meal; measured 60 min after the meal
Procedure: The procedure used to test compounds of the present invention for gastric motility enhancing activity was that of Droppleman et al, J. Pharmacol. Methods, 4, 227(1980). Each animal was dosed intraperitoneally (9.0 mg/kg) with a test compound or control. After 30 minutes each animal was given 3 ml of a methylcellulose-based test meal formulation. Sixty minutes after administration of the test meal, each animal was killed by cervical dislocation, and the stomach was removed and weighed. The stomach was cut open, rinsed and dried, and reweighed. The difference between the full and empty weights (amount of meal remaining in stomach) was subtracted from the original test meal weight to determine the meal amount emptied from the stomach during the test period.

| Compound | inhibition in vivo at 1 mg/kg (cisplatin-induced emesis) | also measured |
| --- | --- | --- |
| COc1cc(N)c(Cl)cc1C(=O)NC1C2CCN(CC2)C1CN1CCCCC1 (stereo not drawn) [Example IV, 4-Amino-5-chloro-2-methoxy-N-[2-(1-piperidinylmethyl)-1-azabicyclo[2.2.2]oct-3-yl]benzamide] | 94% | pA2 against serotonin-induced contractions [1]: 6.6 |
| CNc1cc(OC)c(C(=O)NC2C3CCN(CC3)C2CN2CCCC2)cc1Cl (stereo not drawn) [VII, 5-Chloro-2-methoxy-4-(methylamino)-N-[2-(1-pyrrolidinylmethyl)-1-azabicyclo[2.2.2]oct-3-yl]benzamide] | 87% | – |
| CNc1cc(OC)c(C(=O)NC2C3CCN(CC3)C2CN2CCCCC2)cc1Cl (stereo not drawn) [Example V, 5-Chloro-2-methoxy-4-(methylamino)-N-[2-(1-piperidinylmethyl)-1-azabicyclo[2.2.2]oct-3-yl]benzamide] | 99% | % Time Spent In Lit Area [2]: 51% |
| CNc1cc(OC)c(C(=O)NC2C3CCN(CC3)C2CN(C)C)cc1Cl (stereo not drawn) [III, 5-Chloro-N-[2-[(dimethylamino)methyl]-1-azabicyclo[2.2.2]oct-3-yl]-2-methoxy-4-(methylamino)benzamide] | 73% | – |
| COc1ccc(S(N)(=O)=O)cc1C(=O)NC1CN2CCC1CC2 (stereo not drawn) [5-aminosulfonyl-N-(1-azabicyclo-[2.2.2]oct-3-yl)-2-methoxybenzamide] | – | anti-emetic activity (emesis): not to have anti-emetic activity; neuroleptic activity (dopamine D2 -receptor): neuroleptic activity |
| COc1cc(N)c(Cl)cc1C(=O)NC1C2CCN(CC2)C1CN1CCCC1 (stereo not drawn) [VI, 4-Amino-5-chloro-2-methoxy-N-[2-(1-pyrrolidinylmethyl)-1-azabicyclo[2.2.2]oct-3-yl]benzamide] | 87% | % change in meal emptied (gastric emptying): +33% |
| COc1cc(N)c(Cl)cc1C(=O)NC1C2CCN(CC2)C1CN(C)C (stereo not drawn) [Example I, 4-Amino-5-chloro-N-[2-[(dimethylamino)methyl]-1-azabicyclo[2.2.2]oct-3-yl]-2-methoxy-benzamide] | 96% | % change in meal emptied (gastric emptying): +36% |
| CSCCOc1cc(N)c(Cl)cc1C(=O)NC1C2CCN(CC2)C1CN(C)C (stereo not drawn) [II, 4-Amino-5-chloro-N-[2-[(dimethylamino)methyl]-1-azabicyclo[2.2.2]oct-3-yl]-2-[2-(methylthio)ethoxy]benzamide] | 47% | – |
| COc1cc(N)c(Cl)cc1C(=O)NC1C2CCN(CC2)C1CN1CCOCC1 (stereo not drawn) [XI, 4-Amino-5-chloro-2-methoxy-N-[2-(4-morpholinylmethyl)-1-azabicyclo[2.2.2]oct-3-yl]benzamide] | 21% | – |
| 2-(1-Piperidinylmethyl)-1-azabicyclo[2.2.2]oct-3-yl 1-methyl-1H-indole-3-carboxylate cis isomer [XIII (cis isomer)] | – | % inhibition of cisplatin-induced emesis (cisplatin-induced emesis; dog, 1.0 mg/kg IV given 60 min after cisplatin 3.0 mg/kg IV, emetic episodes recorded for 5 hours): 34% |
